In patent US20250170117A1, “MODULATORS OF ACKR3 AND USES THEREOF” (InterAx Biotech AG, priority 2022, published 2025):
Where a name gives a salt, the structure may show the parent alone.

Legend:
CXCL12 = test: Target engagement study in mice (blood CXCL12 by ELISA); assay type: in vivo; conditions: male CD1 mice, IP, 30 mg/kg; for target engagement compared with reference compound: 16 h, versus ACT-1004-1239
Experimental: (§1) Male CD1 mice were administered IP with compound dissolved in vehicle (10% HP-β-CD in 100 mM Citrate buffer, pH 7) at a dose of 30 mg/kg and mice were sacrificed 16 h (n=3 per time point) following compound administration. Blood samples were harvested and CXCL12 concentration was determined by CXCL12 ELISA kit.

NanoLuc-hACKR3 = molecular target: T1, NanoLuc-hACKR3 (Homo sapiens, UniProt P25106); test: NanoBRET binding study (displacement of fluorescently labelled CXCL12); conditions: displacement of 0.3 nM CXCL12-AF647; membranes of HEK293T cells expressing NanoLuc-ACKR3; 1 hour incubation; read-out: Affinity
T1 construct: expressed in transfected cells; host or cells: HEK293T (transient, PEI; membrane preparation)
T1 sequence (P25106 whole entry): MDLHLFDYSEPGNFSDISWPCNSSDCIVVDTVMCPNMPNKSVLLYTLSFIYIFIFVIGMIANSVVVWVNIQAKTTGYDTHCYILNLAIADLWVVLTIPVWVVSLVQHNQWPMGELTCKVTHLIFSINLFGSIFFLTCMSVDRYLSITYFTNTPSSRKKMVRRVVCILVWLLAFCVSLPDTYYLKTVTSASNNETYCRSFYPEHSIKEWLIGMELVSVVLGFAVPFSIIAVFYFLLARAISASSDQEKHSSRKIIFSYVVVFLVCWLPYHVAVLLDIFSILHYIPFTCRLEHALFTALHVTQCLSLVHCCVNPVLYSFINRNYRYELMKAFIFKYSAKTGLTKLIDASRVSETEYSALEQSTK
Experimental: Membranes of HEK293T cells that transiently express the NanoLuc-hACKR3 were produced. 2 million HEK293T cells were seeded per […] dish and were transfected the next day using a DNA/PEI-mix containing 0.25 μg plasmid DNA encoding for the ACKR3, 4.75 μg pcDEF3 plasmid DNA and 30 μg linear PEI. Two days after transfection, cells were collected in PBS and pelleted by centrifugation. Cell pellets were resuspended in ice-cold membrane buffer (15 mM Tris, 0.3 mM EDTA, 2 mM MgCl2, pH 7.4 at 4° C.) and were dounce-homogenized on ice by plunging the pestle […] with 1500 rpm. Cell homogenates were subsequently subjected to two freeze-thaw cycles using liquid nitrogen. Next, the cell homogenates were centrifuged at 40,000 g and pellets were resuspended in Tris-sucrose buffer (20 mM Tris, 250 mM Sucrose, pH 7.4 at 4° C.). Finally, the membrane samples were homogenized using a 23-gauge needle, snap-frozen with liquid nitrogen and stored until further experimentation at −80° C.
Binding reactions were measured in triplicate on white low-volume 384-well plates and started by combining 0.3 nM fluorescently labelled CXCL12 (CXCL12 labelled with a AF647® dye in a molar ratio of dye:peptide of 1:1, purchased from ALMAC, h-SDF-1α (AF647®), cat. No. CAF-11, Sequence:
[…](Ale xa647®)ALN), increasing concentrations of test compound (10^−5 M-10^−11 M) with 35 ng membranes (protein content) per well of HEK293T cells expressing the NanoLuc-ACKR3. All dilutions were prepared in HBSS supplemented with 0.2% BSA. After assembling the binding reaction, the plate was flash-centrifuged at 500 g. Binding reactions were then incubated for 1 hour after which NanoGlo substrate was added (310 times diluted from stock concentration) to a final volume of 13.5 μL. The reaction plate was again pulse-centrifuged to 500 g and the total light intensity was measured for 460 nm wavelength with 80 nm bandwidth and separately for wavelengths ≥610 nm using the PHERAstar-FSX (BMG Labtech, Ortenberg, Germany) with a dual emission filter. The ratio of light intensities (>610 nm over 460 nm) is a measure for the relative binding of CXCL12-A647 to the NanoLuc-ACKR3. The pharmacological data are presented in Appendix 1.

[1] = In vitro microsomal stability assay (metabolic stability); assay type: in vitro ADME, mouse; conditions: for half-life at 10 μM: mouse liver microsomes (male CD-1), NADPH regenerative system, 10 μM compound, 15, 30 or 60 minutes; for metabolic stability compared with reference compound: mouse liver microsomes, versus ACT-1004-1239
Experimental: Mouse liver microsomes (from S9 liver fraction from male CD-1 mice) are co-incubated with an NADPH regenerative system (1.3 mM NADP+, 3.3. mM glucose-6-phoase, 3.3 mM MgCl2 and 0.4 units/ml glucose-6-phosphate-dehydrogenase) and 10 μM compound for 15, 30 or 60 minutes. Reaction was terminated by centrifugation at max speed and samples were analyzed by LC-MS.

[2] = Single-dose pharmacokinetics study in mice; assay type: in vivo; conditions: male CD1 mice, IP, 30 mg/kg; for pharmacokinetic profiles (half-lives) compared with reference compound: versus ACT-1004-1239; for half-life: mouse, blood, LC-MS/MS, read-out: PK half-life
Experimental: as §1, with “at different time points” for “16 h”, “harvested at different time points” for “harvested”, “compound” for “CXCL12”, “LC-MS/MS.” for “CXCL12 ELISA kit.”

| Ki (NanoLuc-hACKR3) [nM] | half-life at 10 μM [1] [min] | pharmacokinetic profiles (half-lives) compared with reference compound [2] | half-life [2] [min] | Compound | target engagement compared with reference compound (CXCL12) | metabolic stability compared with reference compound [1] | Target engagement (CXCL12 fold-increase) (CXCL12; blood 16 h after administration, CXCL12 ELISA) |
| --- | --- | --- | --- | --- | --- | --- | --- |
| ≤ 100 | > 600 | better than the reference compound | 120 to 240 | O=C(NCC1CCN(C2CCCCC2)CC1)c1cc(-c2ccc(F)cc2F)on1 [Molecule 1, N-[(1-cyclohexylpiperidin-4-yl)methyl]-5-(2,4-difluorophenyl)-1,2-oxazole-3-carboxamide HCl] | comparable or better than the reference compound | comparable or better than the reference compound | – |
| ≤ 100 | 120 to 240 | better than the reference compound | > 240 | O=C(NCC1CCN(Cc2ccc(N3CCCC3)cc2)CC1)c1cc(-c2ccc(F)cc2F)on1 [Molecule 44, 5-(2,4-difluorophenyl)-N-((1-(4-(pyrrolidin-1-yl)benzyl)piperidin-4-yl)methyl)isoxazole-3-carboxamide] | comparable or better than the reference compound | comparable or better than the reference compound | ++ (>3 = ++) |
